According to US20110206650A1, “Probiotic Formulations” (BRACCO IMAGING S.P.A., priority 2008, published 2011):

Tests used:
[1] = system: Corynebacterium xerosis ATCC 7711; details: Ref. 23; cited from earlier work
[2] = system: Staphylococcus epidermidis; details: Ref. 22; cited from earlier work
[3] = system: mice; details: cited from earlier work
[4] = in vivo; cited from earlier work
[5] = acute oral semilethal dose (LD50) in mice; details: mouse, in vivo
Description: Thus, DTPA is a safe oral drug, representing a preferred iron chelator for the compositions of the present invention.
It is therefore a further preferred iron chelator for the compositions of the invention.

SMILES | inhibition of growth of Staphylococcus epidermidis [2] | also measured
O=C(O)C[C@H](NCCN[C@@H](CC(=O)O)C(=O)O)C(=O)O [R,S-EDDS, R,S-ethylenediaminedisuccinic acid] |  | inhibition of growth of Corynebacterium xerosis ATCC 7711 [1]: inhibit growth
O=C(O)CN(CC(=O)O)[C@@H]1CCCC[C@H]1N(CC(=O)O)CC(=O)O (relative stereo) [CDTA, trans-1,2-diaminocyclohexane-N,N,N′,N′-tetraacetic acid] | inhibit the growth | 
O=C(O)CN(CCN(CC(=O)O)CC(=O)O)CCN(CC(=O)O)CC(=O)O [DTPA, diethylenetriaminepentaacetic acid] | inhibit the growth | acute oral semilethal dose (LD50) [3]: 3500 mg/kg
O=C(O)CN(CCN(CCN(CC(=O)O)CC(=O)O)CC(=O)O)CCN(CC(=O)O)CC(=O)O [TTHA, triethylene-tetraaminehexaacetic acid] | inhibit the growth | 
O=C(O)CN(CCN(CC(=O)O)CC(=O)O)CC(=O)O [EDTA, ethylenediaminetetraacetic acid] | inhibit the growth | 
O=C([O-])CN(CCN(CC(=O)[O-])CC(=O)[O-])CCN(CC(=O)[O-])CC(=O)[O-].[H+].[H+].[Na+].[Na+].[Na+] [trisodium pentetate] |  | safety of oral dose [4]: proven to be safe
O=C(O)CN(CCN(CC(=O)O)CC(=O)O)CCN(CC(=O)O)C(COCc1ccccc1)C(=O)O (centres unmarked) [BOPTA, 4-carboxy-5,8,11-tris(carboxymethyl)-1-phenyl-2-oxa-5,8,11-triazatridecan-13-oic acid] |  | LD50 [5]: 8400 µmol/kg
